Source: US10851073B2, “Protein tyrosine phosphatase inhibitors and methods of use thereof” (Calico Life Sciences LLC, priority 2019, dated 2020)

Key:
[1] = molecular target: T1, His tagged PTPN2 (TC45) protein (Homo sapiens, UniProt P17706); assay: Mobility shift assay used to determine potency of PTPN2 inhibitors; assay type: biochemical; conditions: enzyme 0.5 nM, substrate 2 μM; read-out: PTPN2 MSA IC50
T1 construct: made in house
T1 sequence (P17706 with tags, fused parts or gaps isoform P17706-2): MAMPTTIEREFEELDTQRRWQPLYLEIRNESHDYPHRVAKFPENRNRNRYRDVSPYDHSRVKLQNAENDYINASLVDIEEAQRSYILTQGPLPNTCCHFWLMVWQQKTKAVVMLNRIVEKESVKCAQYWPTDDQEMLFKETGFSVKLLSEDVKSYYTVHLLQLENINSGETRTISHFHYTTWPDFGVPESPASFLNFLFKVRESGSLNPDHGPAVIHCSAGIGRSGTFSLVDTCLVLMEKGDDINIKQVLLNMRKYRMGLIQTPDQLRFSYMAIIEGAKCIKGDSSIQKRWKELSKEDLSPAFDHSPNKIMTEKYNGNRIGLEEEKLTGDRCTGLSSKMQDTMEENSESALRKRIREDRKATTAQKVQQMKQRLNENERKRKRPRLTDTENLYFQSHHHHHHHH
Outline: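 Enzyme (0.5 nM) preincubated with compound (12-point, 1:3 dilution) 10 min at room temperature in 50 mM HEPES pH 7.5, 1 mM EGTA, 10 mM EDTA, 0.01% Tween 20, 2 mM DTT; OG488-labelled phospho-insulin-receptor peptide substrate (2 μM) added for 10 min, then quenched. Microfluidic mobility shift (ex 488/em 530 nm) gave % conversion; IC50 from % inhibition.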

[2] = system: B16F10 mouse melanoma cells; assay: B16F10 IFNγ-induced cellular growth inhibition assay; assay type: cell-based; conditions: B16-F10, with 0.5 ng/mL IFNγ, read-out: B16F10 GI IC50
Outline: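 B16F10 cells grown in DMEM+10% FBS, with or without 0.5 ng/mL final mouse IFNγ, and dosed in triplicate at 100 μM to 0.001 μM final (0.1% DMSO). Confluence imaged every 6 h for 5 days; percent growth inhibition versus DMSO/with-IFNγ control taken once DMSO/no-IFNγ wells exceeded 95% confluence, giving IC50.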

[3] = molecular target: T2, His tagged full-length PTPN1 protein (Homo sapiens, UniProt P18031); assay: Mobility shift assay (MSA) used to determine potency of PTPN1 inhibitors; assay type: biochemical; conditions: enzyme 0.5 nM, substrate 2 μM
T2 construct: made in house
T2 sequence (P18031 with tags, fused parts or gaps): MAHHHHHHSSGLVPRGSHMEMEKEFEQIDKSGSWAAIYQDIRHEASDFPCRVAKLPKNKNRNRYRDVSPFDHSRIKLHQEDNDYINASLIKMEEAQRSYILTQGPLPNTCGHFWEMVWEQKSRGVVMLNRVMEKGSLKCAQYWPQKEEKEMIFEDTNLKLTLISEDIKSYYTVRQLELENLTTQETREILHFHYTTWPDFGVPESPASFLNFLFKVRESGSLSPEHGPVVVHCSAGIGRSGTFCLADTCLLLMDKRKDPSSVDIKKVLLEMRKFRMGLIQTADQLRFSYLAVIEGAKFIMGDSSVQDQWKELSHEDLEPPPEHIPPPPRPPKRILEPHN
Outline: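 Full-length His-tagged human PTPN1 (0.5 nM) was preincubated 10 min at room temperature with compound (12-point, 1:3 dilution) in HEPES pH 7.5 buffer with EGTA, EDTA, Tween 20 and DTT. A 2 μM fluorescent phospho-insulin receptor peptide was then added for 10 min before quench. Mobility-shift % conversion gave % inhibition and IC50.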

[4] = system: Pan T cells isolated from C57BL6 splenocytes; assay: T cell function assays (IFNγ and TNFα in supernatants); assay type: cell-based, mouse; conditions: 0.3 μM compound, 3 days; for IFNγ [pg/mL] anti-CD3/CD28 / TNFα [pg/mL] anti-CD3/CD28: anti-CD3/CD28 stimulation
Method: Example 231: T Cell Function Assays Pan T cells were isolated from C57BL6 splenocytes using a MACS Pan T cell isolation kit II (Miltenyi Biotec, Auburn, Calif.) according to the manufacturer's instructions. Isolated T cells (200,000 cells/well in a 96 well flat-bottom plate) were cultured in RPMI 1640 supplemented with 10% FBS, […] 2-mercaptoethanol, 100 U/mL penicillin, and 100 μg/mL streptomycin, and incubated with 0.3 μM compound or DMSO in duplicates. After 1 hour, mouse T cell activator CD3/CD28 Dynabeads (ThermoFisher Scientific, Waltham, Mass.) were added at a 1:5 beads to cells ratio to stimulate the T cells for 3 days. T cells with or without compound were incubated in the absence of T cell activator beads to evaluate if compounds nonspecifically stimulate the T cells. After 3 days of stimulation, supernatants were collected and IFNγ and TNFα in supernatants were assessed using an MSD V-plex assay (Meso Scale Discovery, Rockville, Md.).

O=C1CN(c2c(O)cc3c(c2F)C[C@H](NCCC2(C(F)(F)F)CC2)CC3)S(=O)(=O)N1 (single isomer, unassigned) [Compound 148]
IC50 [1]: < 1 nM
IC50 [2]: < 1000 nM
IC50 [3]: < 1 nM
IFNγ [pg/mL] anti-CD3/CD28 [4]: 168.4 pg/mL
TNFα [pg/mL] anti-CD3/CD28 [4]: 123.4 pg/mL
IFNγ [pg/mL] no stimulation [4]: 1.0 pg/mL
TNFα [pg/mL] no stimulation [4]: 0.8 pg/mL

CC(C)CCNC[C@@H]1Cc2cc(O)c(N3CC(=O)NS3(=O)=O)c(F)c2C1 (single isomer, unassigned) [Compound 291]
IC50 [1]: 1 to 10 nM
IC50 [2]: < 1000 nM
IC50 [3]: 1 to 10 nM
IFNγ [pg/mL] anti-CD3/CD28 [4]: 83.3 pg/mL
TNFα [pg/mL] anti-CD3/CD28 [4]: 91.2 pg/mL
IFNγ [pg/mL] no stimulation [4]: 0.7 pg/mL
TNFα [pg/mL] no stimulation [4]: 1.1 pg/mL

C[C@@H](O)CCN[C@@H]1CCc2cc(O)c(N3CC(=O)NS3(=O)=O)c(F)c2C1 (single isomer, unassigned) [Compound 307]
IC50 [1]: 1 to 10 nM
IC50 [2]: < 1000 nM
IC50 [3]: 1 to 10 nM
IFNγ [pg/mL] anti-CD3/CD28 [4]: 66.7 pg/mL
TNFα [pg/mL] anti-CD3/CD28 [4]: 89.5 pg/mL
IFNγ [pg/mL] no stimulation [4]: 1.2 pg/mL
TNFα [pg/mL] no stimulation [4]: 1.1 pg/mL

CCC(CC)CCN[C@@H]1CCc2cc(O)c(N3CC(=O)NS3(=O)=O)c(F)c2C1 [Compound 204, 5-{(7R)-7-[(3-ethylpentyl)amino]-1-fluoro-3-hydroxy-5,6,7,8-tetrahydronaphthalen-2-yl}-1λ^6,2,5-thiadiazolidine-1,1,3-trione]
IFNγ [pg/mL] anti-CD3/CD28 [4]: 148.8 pg/mL
TNFα [pg/mL] anti-CD3/CD28 [4]: 105.4 pg/mL
IFNγ [pg/mL] no stimulation [4]: 1.8 pg/mL
TNFα [pg/mL] no stimulation [4]: 1.1 pg/mL

CC(C)CCCC1(N)CCc2cc(O)c(N3CC(=O)NS3(=O)=O)c(F)c2C1 (centres unmarked) [Compound 254, 5-[7-amino-1-fluoro-3-hydroxy-7-(4-methylpentyl)-5,6,7,8-tetrahydronaphthalen-2-yl]-1λ^6,2,5-thiadiazolidine-1,1,3-trione]
IC50 [1]: 10 to 100 nM
IC50 [2]: 1000 to 10000 nM
IC50 [3]: 10 to 100 nM
IFNγ [pg/mL] anti-CD3/CD28 [4]: 97.0 pg/mL
TNFα [pg/mL] anti-CD3/CD28 [4]: 91.2 pg/mL
IFNγ [pg/mL] no stimulation [4]: 0.7 pg/mL
TNFα [pg/mL] no stimulation [4]: 1.1 pg/mL

CC(C)CCN(CCC(C)C)CC1Cc2cc(O)c(N3CC(=O)NS3(=O)=O)c(F)c2C1 (centres unmarked) [Compound 269, 5-(2-{[bis(3-methylbutyl)amino]methyl}-4-fluoro-6-hydroxy-2,3-dihydro-1H-inden-5-yl)-1λ^6,2,5-thiadiazolidine-1,1,3-trione]
IC50 [1]: 1 to 10 nM
IC50 [2]: 10000 to 100000 nM
IC50 [3]: 1 to 10 nM

CC1(C)CC1CCCN1CCc2cc(O)c(N3CC(=O)NS3(=O)=O)c(F)c2C1 (centres unmarked) [Compound 288, 5-{2-[3-(2,2-dimethylcyclopropyl)propyl]-8-fluoro-6-hydroxy-1,2,3,4-tetrahydroisoquinolin-7-yl}-1λ^6,2,5-thiadiazolidine-1,1,3-trione]
IC50 [1]: 10 to 100 nM
IC50 [2]: 1000 to 10000 nM
IC50 [3]: 1 to 10 nM
